Source: patent publication US9249147B2, “Tyrosine kinase inhibitors” (CHEMBRIDGE CORPORATION, priority 2008, dated 2016)
Entries after “also recorded” stand apart in the source; their conditions may differ. Blank lines part the entries; values can stand above or below the molecule they belong to.

How the values were obtained:
Karpas299 = assay: Cell proliferation inhibition, ALCL line Karpas299; assay type: cell-based; conditions: Homo sapiens, KARPAS-299; Table 3A; read-out: Cellular IC50 K-299
Source text: The IL-3-dependent lymphoid cell line BaF3 or BaF3 rendered IL-3-independent by engineered expression of NPM-ALK were used in parallel to test each candidate inhibitor. Control wells contained DMSO solvent without test compound. Specific inhibition of ALK signaling is indicated in the assay by impairment of NPM-ALK-expressing BaF3 cell growth without alterations in the growth of parental BaF3. This colorimetric assay of cell proliferation and viability is based upon reduction of the yellow monotetrazolium salt XTT to a water-soluble orange formazan dye, a reaction catalyzed by mitochondrial dehydrogenases in living cells only (Cell Proliferation Kit II, Cat. #1 465 015, Roche Biochemicals). In addition to testing compounds for their ability to impair the growth of BaF3 cells engineered to express NPM-ALK, the NPM-ALK-positive human lymphoma cell line Karpas-299 (Deutsche Sammlung von Mikroorganismen and Zellkulturen GmbH (DSMZ) no. ACC 31), the human BCR-ABL-positive chronic myeloid leukemia cell line K562 (American Type Culture Collection (ATCC) no. CCL-243), and the human T-cell leukemia line Jurkat (DSMZ no. ACC 282) were tested in these assays.
Each compound stock in 100% DMSO was first diluted using 8% DMSO/culture medium to produce a working stock of 250 μM compound. This working stock was then used to perform serial 1:1 dilutions (i.e., 125 μM, 62.5 μM, 31.25 μM, 15.625 μM, 7.8125 μM, and 3.90625 μM) using DMSO-free culture medium. Twenty (20) μL of each of these dilutions was then added to the cells (2×10^4 cells in 80 μL culture medium per 96-well) to obtain the final test compound concentrations (i.e., 25 μM, 12.5 μM, 6.25 μM, 3.125 μM, 1.5625 μM, and 0.78125 μM).
(§1) Cell proliferation inhibition assays were run for compound (II) with the five target NPM-ALK-dependent ALCL cell lines (Karpas 299, SuDHL-1, JB6, SupM2, UConn) and 12 unrelated cell lines (HEK293, CHO-K1, MCF7, HepG2, H292, H520, H1581, H596, H522, CHA-GO-K1, UMC-11, SK-MES1). […] The pronounced target cell-killing effect is also observed (molecular mechanisms to be determined).

ALK = ALK (Homo sapiens, UniProt Q9UM73); assay: ALK kinase assay (Kinase-Glo / AlphaScreen, purified NPM-ALK); assay type: biochemical; parameters: fused to the complete intracytoplasmic portion of ALK containing the functional tyrosine kinase domain; 6xHis; made in house; host or cells: insect cells; the other entry of the earlier key: NPM1 (P06748, Nucleophosmin); conditions: Table 3A; read-out: Cell Free IC50 ALK;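 also: recombinant baculovirus-expressed ALK kinase domain, activity read either as leftover ATP by Kinase-Glo luminescence or as poly(Glu-Tyr) phosphorylation by anti-phosphotyrosine AlphaScreen proximity signal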
ALK, sequence (Q9UM73 with tags, fused parts or gaps): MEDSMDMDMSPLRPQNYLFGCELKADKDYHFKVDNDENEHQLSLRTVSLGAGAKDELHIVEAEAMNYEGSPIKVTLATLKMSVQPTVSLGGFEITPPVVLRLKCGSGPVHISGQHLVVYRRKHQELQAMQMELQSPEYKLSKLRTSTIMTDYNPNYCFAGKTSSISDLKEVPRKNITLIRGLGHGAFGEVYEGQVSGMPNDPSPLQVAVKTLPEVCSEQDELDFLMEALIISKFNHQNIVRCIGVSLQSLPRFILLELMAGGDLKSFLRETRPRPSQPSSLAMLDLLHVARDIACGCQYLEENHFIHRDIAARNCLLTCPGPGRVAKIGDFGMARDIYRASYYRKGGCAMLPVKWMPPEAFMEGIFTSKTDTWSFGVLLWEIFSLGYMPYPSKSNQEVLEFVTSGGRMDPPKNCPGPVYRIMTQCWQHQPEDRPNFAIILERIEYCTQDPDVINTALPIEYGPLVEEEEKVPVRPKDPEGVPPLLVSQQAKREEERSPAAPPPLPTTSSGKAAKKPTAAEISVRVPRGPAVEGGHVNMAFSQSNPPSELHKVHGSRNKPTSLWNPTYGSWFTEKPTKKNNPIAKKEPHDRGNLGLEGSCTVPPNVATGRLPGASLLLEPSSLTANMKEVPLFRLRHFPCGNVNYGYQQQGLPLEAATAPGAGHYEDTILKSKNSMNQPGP

U937 = assay: Cellular IC50, U937; assay type: cell-based; conditions: Homo sapiens, U-937; Table 3A
TRKA = TRKA (Homo sapiens, UniProt P04629); assay: TRKA kinase assay; assay type: biochemical; parameters: 6×His- or GST-tagged kinase domain fragments of the corresponding RTKs expressed in baculovirus system; host or cells: baculovirus system; conditions: Table 3A; read-out: Cell Free IC50 TRKA
TRKA, sequence (P04629 510-781 limits assumed): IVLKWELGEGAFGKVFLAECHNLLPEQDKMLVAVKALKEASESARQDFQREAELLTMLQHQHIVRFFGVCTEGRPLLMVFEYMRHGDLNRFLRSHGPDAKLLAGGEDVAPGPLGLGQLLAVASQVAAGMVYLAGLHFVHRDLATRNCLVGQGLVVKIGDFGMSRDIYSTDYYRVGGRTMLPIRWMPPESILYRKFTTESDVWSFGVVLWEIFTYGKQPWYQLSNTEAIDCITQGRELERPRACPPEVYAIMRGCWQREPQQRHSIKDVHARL

RET = RET (Homo sapiens, UniProt P07949); assay: RET cell free kinase assay (Table 3A); assay type: biochemical
RET, sequence (P07949 29-1114): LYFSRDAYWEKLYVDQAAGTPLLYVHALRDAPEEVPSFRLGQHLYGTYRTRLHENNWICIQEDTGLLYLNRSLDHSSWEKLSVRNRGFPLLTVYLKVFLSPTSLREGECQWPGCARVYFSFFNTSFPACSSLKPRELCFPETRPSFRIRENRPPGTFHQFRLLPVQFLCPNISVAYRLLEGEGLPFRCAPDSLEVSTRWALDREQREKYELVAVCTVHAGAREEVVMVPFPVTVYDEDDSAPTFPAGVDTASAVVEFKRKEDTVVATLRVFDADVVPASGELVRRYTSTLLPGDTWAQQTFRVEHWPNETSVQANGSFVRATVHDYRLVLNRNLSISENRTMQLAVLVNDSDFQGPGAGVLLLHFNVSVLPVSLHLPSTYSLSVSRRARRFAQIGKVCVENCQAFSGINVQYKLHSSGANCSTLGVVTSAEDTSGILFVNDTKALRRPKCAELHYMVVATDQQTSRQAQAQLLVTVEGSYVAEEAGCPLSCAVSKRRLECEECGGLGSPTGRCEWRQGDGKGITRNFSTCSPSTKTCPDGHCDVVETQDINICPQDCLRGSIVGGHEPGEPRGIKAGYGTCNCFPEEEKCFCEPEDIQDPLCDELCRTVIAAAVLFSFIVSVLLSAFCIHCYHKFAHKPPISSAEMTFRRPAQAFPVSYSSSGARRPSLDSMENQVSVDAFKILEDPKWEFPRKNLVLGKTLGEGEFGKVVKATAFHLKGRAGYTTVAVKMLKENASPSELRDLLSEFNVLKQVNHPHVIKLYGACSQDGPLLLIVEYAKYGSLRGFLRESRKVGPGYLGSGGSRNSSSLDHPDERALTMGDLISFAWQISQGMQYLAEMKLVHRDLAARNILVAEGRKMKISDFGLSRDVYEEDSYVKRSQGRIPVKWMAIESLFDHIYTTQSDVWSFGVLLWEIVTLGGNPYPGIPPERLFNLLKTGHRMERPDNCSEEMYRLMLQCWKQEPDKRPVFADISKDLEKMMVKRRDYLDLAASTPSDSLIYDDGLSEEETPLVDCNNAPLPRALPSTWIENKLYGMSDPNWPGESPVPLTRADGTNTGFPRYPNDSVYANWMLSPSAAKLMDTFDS

SUDHL-1 = assay: Cellular IC50, SUDHL-1; assay type: cell-based; conditions: Homo sapiens, SU-DHL-1; Table 3A
Source text: as §1

ROS = ROS (Homo sapiens, UniProt P08922); assay: ROS cell free kinase assay (Table 3A); assay type: biochemical
ROS, sequence (P08922 28-2347): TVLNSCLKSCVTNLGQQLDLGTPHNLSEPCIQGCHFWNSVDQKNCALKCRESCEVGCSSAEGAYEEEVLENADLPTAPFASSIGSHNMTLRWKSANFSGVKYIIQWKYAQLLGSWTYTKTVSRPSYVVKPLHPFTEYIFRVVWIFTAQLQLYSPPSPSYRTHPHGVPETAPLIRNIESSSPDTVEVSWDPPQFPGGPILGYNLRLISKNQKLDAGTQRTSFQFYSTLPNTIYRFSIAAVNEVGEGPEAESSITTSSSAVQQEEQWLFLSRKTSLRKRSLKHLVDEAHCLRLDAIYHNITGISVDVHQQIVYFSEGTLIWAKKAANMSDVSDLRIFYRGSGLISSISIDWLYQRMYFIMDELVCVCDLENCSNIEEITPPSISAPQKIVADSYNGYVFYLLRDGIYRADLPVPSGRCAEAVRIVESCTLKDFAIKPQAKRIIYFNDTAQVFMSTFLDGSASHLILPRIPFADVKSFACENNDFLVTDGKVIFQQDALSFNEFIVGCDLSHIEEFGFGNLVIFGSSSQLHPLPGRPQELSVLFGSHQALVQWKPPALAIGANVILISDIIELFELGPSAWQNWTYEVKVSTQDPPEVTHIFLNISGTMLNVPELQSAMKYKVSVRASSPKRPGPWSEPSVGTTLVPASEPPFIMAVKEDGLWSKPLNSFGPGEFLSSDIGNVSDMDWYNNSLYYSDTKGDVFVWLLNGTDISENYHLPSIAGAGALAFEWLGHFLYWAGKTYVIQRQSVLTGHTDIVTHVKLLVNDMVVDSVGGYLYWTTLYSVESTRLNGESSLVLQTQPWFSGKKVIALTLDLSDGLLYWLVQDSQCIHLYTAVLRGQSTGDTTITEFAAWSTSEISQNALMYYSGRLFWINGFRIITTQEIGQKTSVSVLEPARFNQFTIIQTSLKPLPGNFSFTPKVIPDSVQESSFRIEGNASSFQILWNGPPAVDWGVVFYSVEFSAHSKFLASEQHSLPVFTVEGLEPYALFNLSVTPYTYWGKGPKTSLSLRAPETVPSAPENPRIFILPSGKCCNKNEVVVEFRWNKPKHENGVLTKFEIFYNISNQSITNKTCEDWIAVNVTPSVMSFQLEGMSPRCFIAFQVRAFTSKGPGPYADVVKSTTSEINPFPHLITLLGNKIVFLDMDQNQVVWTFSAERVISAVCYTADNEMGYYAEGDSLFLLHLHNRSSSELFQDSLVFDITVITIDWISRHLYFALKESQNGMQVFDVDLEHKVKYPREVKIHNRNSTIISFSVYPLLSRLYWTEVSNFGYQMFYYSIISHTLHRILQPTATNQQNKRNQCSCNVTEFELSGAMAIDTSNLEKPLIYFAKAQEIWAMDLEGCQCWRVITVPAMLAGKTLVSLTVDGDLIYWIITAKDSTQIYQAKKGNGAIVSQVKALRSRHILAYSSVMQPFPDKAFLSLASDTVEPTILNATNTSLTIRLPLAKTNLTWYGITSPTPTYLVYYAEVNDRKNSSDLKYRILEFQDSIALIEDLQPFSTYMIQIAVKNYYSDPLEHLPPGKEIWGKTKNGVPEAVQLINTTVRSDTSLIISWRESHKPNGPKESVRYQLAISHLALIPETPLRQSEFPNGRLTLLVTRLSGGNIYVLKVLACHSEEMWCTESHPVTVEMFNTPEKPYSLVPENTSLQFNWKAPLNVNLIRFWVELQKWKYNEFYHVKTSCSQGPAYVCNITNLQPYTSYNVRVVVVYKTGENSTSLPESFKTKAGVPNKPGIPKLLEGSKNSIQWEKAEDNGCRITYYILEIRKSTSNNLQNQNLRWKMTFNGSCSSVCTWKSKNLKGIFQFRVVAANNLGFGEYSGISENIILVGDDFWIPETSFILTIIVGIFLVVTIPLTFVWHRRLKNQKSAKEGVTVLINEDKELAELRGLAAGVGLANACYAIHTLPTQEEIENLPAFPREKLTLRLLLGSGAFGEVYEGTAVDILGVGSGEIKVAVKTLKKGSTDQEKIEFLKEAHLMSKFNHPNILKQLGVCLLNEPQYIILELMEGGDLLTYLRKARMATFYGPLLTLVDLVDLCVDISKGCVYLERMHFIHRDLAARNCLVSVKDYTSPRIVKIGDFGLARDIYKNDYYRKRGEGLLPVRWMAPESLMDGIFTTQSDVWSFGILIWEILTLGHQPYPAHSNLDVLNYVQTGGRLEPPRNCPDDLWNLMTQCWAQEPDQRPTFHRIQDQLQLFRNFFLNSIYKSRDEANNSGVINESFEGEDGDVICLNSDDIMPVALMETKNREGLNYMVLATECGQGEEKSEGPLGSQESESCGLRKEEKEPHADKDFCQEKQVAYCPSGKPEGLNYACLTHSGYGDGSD

[1] = Liver microsome stability, Mouse LM-P1 / MLM; assay type: in vitro ADME; conditions: Table 3A, mouse liver microsomes; read-out: CL MLM
[2] = Liver microsome stability, Human LM-P1 / HLM; assay type: in vitro ADME; conditions: Table 3A, human liver microsomes; read-out: CL HLM
Source text: Metabolic stability of compound (II) (labeled as CRL241 below) in vitro has been tested in a standard in vitro microsomal stability assay in human microsomes (Cerep Study 13170).

ALCL cell lines = assay: Proliferation of NPM-ALK-dependent ALCL / ALK+ T-cell lymphoma cell lines; assay type: cell-based; conditions: FIGS. 5, 6
Source text: as §1

PC12 cells = assay: NGF-stimulated neurite outgrowth in PC12 cells; assay type: cell-based; conditions: 100 nM compound, NGF 100 ng/ml, 6 days
Method: In chronic pain states, neurons form outgrowths which sensitize them to pain. NGF-induced neurite outgrowth was used as an assay for TrkA-dependent chronic/neuropathic pain activity.
Methods: PC12 cells were grown in 2% FBS and treated with or without NGF (100 ng/ml) 30 min before adding of vehicle or TRKA compounds for 6 days, changing media on day 3. On day 6 cells were fixed and stained for SRB before photographed for neurite outgrowth.

IL-8 in A549 cells = assay: PMA-induced IL-8 levels in A549 cells, with or without RU-486; assay type: cell-based; conditions: 4 hr treatments
FKBP51 (GR pathway) = assay: GR specific anti-inflammatory marker FKBP51 in A549 cells; assay type: cell-based
A549 cells [3] = assay: Prolonged inflammation (PMA induced MMP-1 or IL-8) in A549 cells; assay type: cell-based; conditions: FIG. 17
Source text: Panel 3: All the above were done on the transcriptional level (i.e., MMP-1, IL-8, etc. expressions). For IL-8, this was verified on the translational (i.e., protein expression) level as well.

MMP-1 in A549 cells [4] = assay: Combination of Trk inhibitor and glucocorticoid on MMP-1 expression in A549 cells; assay type: cell-based; conditions: sub-optimal concentrations
MMP-1 in A549 cells [5] = assay: PMA induced MMP-1 production in A549 cells; assay type: cell-based; conditions: one hour treatment
PC-12 cells = assay: PC-12 cell cytotoxicity; assay type: cell-based; conditions: FIG. 13
A549 cells [6] = assay: TNFα-induced acute inflammation in A549 cells; assay type: cell-based; conditions: 100 nM Dex or 1 μM compound (VI)

IC50 (Karpas299): 99 nM | IC50 (ALK): 10 nM | IC50 (U937): 1180 nM | IC50 (TRKA): 5 nM | IC50 (RET): 6 nM | IC50 (SUDHL-1): 93 nM | IC50 (ROS): 0.3 nM | CLint scaled [1]: < 5.8 mL/min/kg | CLint scaled [2]: < 5.8 mL/min/kg
SMILES: C[C@@H](Cc1c(F)c(F)cc(F)c1F)Nc1cc[nH]c(=O)c1-c1nc2cc3c(cc2[nH]1)C(=O)N(C1CCN(C)CC1)C3

SMILES: C[C@@H](Cc1cccs1)Nc1cc[nH]c(=O)c1-c1nc2cc3c(cc2[nH]1)C(=O)N(CCCN1CCCC1)C3 [compound (V)]
Inhibition of ALCL / ALK+ T-cell lymphoma cell line proliferation (ALCL cell lines): potent and highly selective inhibitor of ALCL cell lines

SMILES: C[C@@H](Cc1cc(F)cc(F)c1F)Nc1cc[nH]c(=O)c1-c1nc2cc3c(cc2[nH]1)CN(CCN(C)C)C3=O [compound (VI)]
NGF-stimulated neurite outgrowth (PC12 cells): inhibited the neurite outgrowth | Effect of GR antagonist RU-486 on inhibition of PMA-induced IL-8 levels (IL-8 in A549 cells): not affected or possibly were more potent | Activation of GR pathway (FKBP51 marker) (FKBP51 (GR pathway)): did not active the GR pathway | Anti-inflammatory effect on prolonged inflammation (PMA induced MMP-1 or IL-8) (A549 cells [3]): anti-inflammatory activity was observed; also recorded: demonstrated anti-inflammatory activity which was not reversible by GR antagonist | Effect of combination with Dex on PMA-induced inflammation (MMP-1 expression) (MMP-1 in A549 cells [4]): additive anti-inflammatory effects | Concentration required for complete inhibition of PMA induced MMP-1 production (MMP-1 in A549 cells [5]): ~1 µM | PC-12 cell cytotoxicity (PC-12 cells): lack of PC-12 cell cytotoxicity | TNFα-induced acute inflammation (A549 cells [6]): partially reversible
